From EP4578449A1, “PHARMACEUTICAL COMBINATION OF FAK INHIBITOR AND MICROTUBULE INHIBITOR AND USE THEREOF” (Inxmed (Nanjing) Co., Ltd., priority 2022, dated 2024) come the findings set out here.

In series [1] the test system is mouse colon cancer CT26 cells. Put plainly: Docetaxel/Eribulin/Paclitaxel and Defactinib: microscopy and CRT/Annexin-V/PI flow cytometry. The class given is cell-based. Particulars: 48 hours, Defactinib 5 µM, Docetaxel 0.3 µM, Eribulin 0.3 µM, Paclitaxel 6 µM, alone or combined with Defactinib. The protocol: CT26 cells were cultured in monolayer in vitro under the following conditions: RPMI-1640 medium with 10% fetal bovine serum, 37°C, 5% CO2. Trypsin was used for routine digestion and passage treatment two to three times a week. When the cells were in the exponential growth phase and the adherent confluence reached 80%-90%, the cells were harvested and plated.
CT26 cells were digested with trypsin, and then the cells were collected and counted. Based on the counting results, the cells were diluted with the corresponding complete culture medium to a concentration of 50,000 cells per milliliter. Then the cells were plated in 12-well cell culture plates, with 2 ml of cell suspension per well, i.e., 100,000 cells.
After plating, the cells were cultured in a 37°C and 5% CO2 incubator.
After 24 hours of plating, the test compounds Docetaxel, Eribulin, Paclitaxel and Defactinib were added to different wells, respectively.
After 48 hours of drug action, the cells were photographed using a microscope, and then trypsinized and collected for flow cytometry staining.
The cells were washed twice with flow buffer (DPBS + 2% FBS). 0.5 µL of AF647 Anti-Calreticulin Antibody was added to each well, and mixed well. The cells were incubated at 4°C in the dark for 20 min. After washing once with flow buffer, 195 µL of Annexin-V-FITC binding solution was added, and the cells were gently mixed well. 5 µL of Annexin-V-FITC antibody was added. After further mixing, 10 µL of PI dye was added and mixed well. The cells were incubated at room temperature in the dark for 15 min. The cells were then subjected to flow cytometry.
After the assay, the cell positive rate was analyzed by Flowjo (V10) software.
(A flow cytometer gives signals particle by particle.)

The next series deals with breast cancer 4T1 cells. Description: Subcutaneous allograft tumor model of breast cancer 4T1 cells in BALB/c mice. The class given is in vivo. An excerpt:
Mice: Female BALB/c mice aged 6-8 weeks were purchased from SHANGHAI SLAC LABORATORY ANIMAL CO. LTD. The assay began after the animals were adapted to the assay environment upon arrival. The animals were kept in IVC (independent ventilation system) cages (5 per cage) in an SPF animal room. All cages, padding and drinking water must be sterilized before use. All assay personnel should wear protective clothing and latex gloves when operating in the animal room. Cages, feed and drinking water were replaced twice a week. The feeding environment and lighting conditions were as follows: • Temperature: 20-26 °C • Humidity: 40-70% • Lighting period: 12 hours light, 12 hours no light • Cages: Made of polycarbonate, 300 mm × 180 mm × 150 mm. The padding was corn cobs, which was replaced twice a week. • Food: The assay animals had free access to food (dry pelleted food sterilized by irradiation) throughout the assay period. • Drinking water: Assay animals were free to drink sterile water. • Cage identification: The animal information card for each cage should indicate the number of animals in the cage, gender, strain, receipt date, dosing regimen, assay number, group and start date of the assay. • Animal identification: Assay animals were identified with ear tags.
Breast cancer cell 4T1 (source: Nanjing Cobioer Biotechnology Co., Ltd., catalog number: CBP60352) was maintained and passaged by INXMED (Nanjing) Co., Ltd. The cells were cultured in a monolayer in vitro in RPMI-1640 medium with 10% fetal bovine serum in a 37 °C, 5% CO2 incubator. Trypsin-EDTA was used for routine digestion and passage treatment two to three times a week. When the cells were in the exponential growth phase and the adherent confluence reached 80%-90%, the cells were harvested and plated.
0.1 mL of cell suspension containing 2 x 10^5 cells was subcutaneously inoculated on the right back of each mouse. When the tumor volume reached ~52 mm^3 (10th day after cell inoculation), the mice were randomly divided into groups for drug administration according to the tumor volume. Table 9. Dosing regimen of the test substance in 4T1 mouse transplant tumor model
The formulation and any modifications of this assay protocol had been assessed and approved by the IACUC of ArrayBridge. The use and welfare of assay animals were carried out in accordance with AAALAC regulations. The health status and mortality of animals were monitored daily, with routine checks including observation of tumor growth and the impact of drug treatment on the animals' daily behavior, such as activity, food and water intake (estimated by visual inspection), changes in body weight, physical signs, or any other abnormalities. The number of animal deaths and side effects in each group were recorded based on the number of animals in each group.
If the animal's health condition continued to deteriorate, or if the tumor volume exceeded 3,000 mm^3, or there was a serious disease or pain, euthanasia should be carried out. In the following cases, the veterinarian was notified and euthanasia was performed: obvious weight loss, i.e., weight loss greater than 20%; inability to freely eat and drink; the average tumor volume of the control group reached 2000 mm^3, the assay was terminated.
Tumor diameters were measured three times a week using calipers. The tumor volume was calculated using the formula: V = 0.5 × a × b^2, where a and b represent the long and short diameters of the tumor, respectively.
Based on the tumor volume on the first day after grouping, the tumor growth inhibition rate TGI (%) was calculated according to the following formula: TGI (%) = [1 - (average tumor volume of a treatment group - average tumor volume of the treatment group at the beginning of treatment) / (average tumor volume of the solvent control group - average tumor volume of the solvent control group at the beginning of treatment)] × 100%. […]

Take `CC(=O)O[C@H]1C(=O)[C@@]2(C)[C@H]([C@H](OC(=O)c3ccccc3)[C@]3(O)C[C@H](OC(=O)[C@H](O)[C@@H](NC(=O)c4ccccc4)c4ccccc4)C(C)=C1C3(C)C)[C@]1(OC(C)=O)CO[C@@H]1C[C@@H]2O` [Paclitaxel]: in series [1], the “cell status (cell death) under a microscope” value is listed as “obvious”.

For `Cc1c(C=Cc2cc(CNC(C)(CO)C(=O)O)ccc2C(F)(F)F)cccc1-c1ccc2c(c1)OCCO2` (centres unmarked) [MAX10181], in the series with breast cancer 4T1 cells (baseline at grouping (10th day after inoculation), mean ± standard error, 6 mice per group), the “Tumor volume on day 0” value is reported as 51.7 ± 13.9 mm^3. For the same molecule, in the series on breast cancer 4T1 cells (day 21 after administration, vs control group, DTX 10 mg/kg i.p. BIW, IN10018 25 mg/kg p.o. QD, MAX10181 120 mg/kg p.o. BID), the TGI is reported as -3.7%. For the same molecule, the “Tumor volume on day 21” value in the series with breast cancer 4T1 cells (day 21 after administration, DTX 10 mg/kg i.p. BIW, IN10018 25 mg/kg p.o. QD, MAX10181 120 mg/kg p.o. BID, mean ± standard error) is given as 2205.7 ± 912.7 mm^3. For the same molecule, the death of animals entry in the series with breast cancer 4T1 cells (entire dosing cycle (21 days), 6 mice per group, deaths following diarrhea, MAX10181 120 mg/kg p.o. BID, DTX 10 mg/kg i.p. BIW) is listed as “one”.
